According to the supplement of paper PMC10307832:

Experiments:
Test in all cases: relative viability (nuclei count vs DMSO), 5 days (fraction); higher = more cells survive
[1] = compound: CC1(C)CCC(CN2CCN(c3ccc(C(=O)NS(=O)(=O)c4ccc(NCC5CCOCC5)c([N+](=O)[O-])c4)c(Oc4cnc5[nH]ccc5c4)c3)CC2)=C(c2ccc(Cl)cc2)C1 [Venetoclax] + COc1cc2c(Oc3ccc(NC(=O)C4(C(=O)Nc5ccc(F)cc5)CC4)cc3F)ccnc2cc1OCCCN1CCOCC1 [Foretinib] (partner 0.25 µM)
Procedure, shortened: (§1)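 One day after seeding in 1536-well plates, lung cancer cell lines were dosed by pin tool. Dosing was either single-drug or a fixed anchor-drug dose plus five library-drug doses (not always all listed) in √10 steps. After 5 days, nuclei were stained in one fix-and-stain step and counted on 4× images, and relative viability is the nuclei count of treated wells over that of vehicle wells, given as the median of duplicate plates.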

[2] = compound: Cn1cnc2c(F)c(Nc3ccc(Br)cc3Cl)c(C(=O)NOCCO)cc21 [Selumetinib] + C[C@@H](Oc1cc(-c2cnn(C3CCNCC3)c2)cnc1N)c1c(Cl)ccc(F)c1Cl [Crizotinib] (partner 1 µM)
Procedure, shortened: as §1

[3] = compound: Cn1cnc2c(F)c(Nc3ccc(Br)cc3Cl)c(C(=O)NOCCO)cc21 [Selumetinib] + CC(C)C[C@H](NC(=O)[C@H](Cc1ccccc1)NC(=O)c1cnccn1)B(O)O [Bortezomib] (partner 0.002 µM)
Procedure, shortened: as §1

[4] = compound: CC1(C)CCC(CN2CCN(c3ccc(C(=O)NS(=O)(=O)c4ccc(NCC5CCOCC5)c([N+](=O)[O-])c4)c(Oc4cnc5[nH]ccc5c4)c3)CC2)=C(c2ccc(Cl)cc2)C1 [Venetoclax] + Cc1cc(Nc2cc(N3CCN(C)CC3)nc(Sc3ccc(NC(=O)C4CC4)cc3)n2)n[nH]1 [Tozasertib] (partner 0.1 µM)
Procedure, shortened: as §1

## UMC-11
[1]; first compound 0.01 µM
  relative viability: 1.08
[1]; first compound 0.03162 µM
  relative viability: 1.05
[1]; first compound 0.1 µM
  relative viability: 1.01
[1]; first compound 0.3162 µM
  relative viability: 0.961
[1]; first compound 1 µM
  relative viability: 0.913
[2]; first compound 0.02 µM
  relative viability: 0.686
[2]; first compound 0.06325 µM
  relative viability: 0.594
[2]; first compound 0.2 µM
  relative viability: 0.515
[2]; first compound 0.6325 µM
  relative viability: 0.645
[3]; first compound 0.02 µM
  relative viability: 0.685
[3]; first compound 0.06325 µM
  relative viability: 0.589
[3]; first compound 0.2 µM
  relative viability: 0.974
[3]; first compound 0.6325 µM
  relative viability: 0.848
[4]; first compound 0.01 µM
  relative viability: 0.205
[4]; first compound 0.03162 µM
  relative viability: 0.213
[4]; first compound 0.1 µM
  relative viability: 0.2
[4]; first compound 0.3162 µM
  relative viability: 0.191
[4]; first compound 1 µM
  relative viability: 0.187
